Assay results as given in patent US9815865B2, “Preparations of hydrophobic therapeutic agents, methods of manufacture and use thereof” (Aciex Therapeutics, Inc., priority 2013, dated 2017).
≈ marks a conversion by molar mass, not a printed value. Like-named read-outs stand apart in the source and are kept apart here.

What was measured:
[1] = Saturated solubility and rate of dissolution of FP
Experimental: The saturated solubility of FP was measured by HPLC for the nanocrystals produced by the batch process of the invention, FP homogenized and FP stock material.

Tap density = type: physicochemical
[2] = Stability of FP nanocrystal suspensions (assay, impurities, pH, particle size); type: physicochemical
Source text: This phase III composition was also stable chemically for more than 4 weeks at 40 degrees C. This combination of polymers also maintains the particle size at its original size for 5-14 days.
The stability of the nanocrystals is controlled by the pH of phase III, which is formed by the combination of phase I and phase II. A 20 gram batch of nanocrystals were produced at pH 5.5 and placed on stability at 25 degrees C. Another 20 gram batch was produced at pH 7.5 and stability determined at 25 degrees C. for 30 days. Unexpectedly, the particles at 7.5 grew rapidly to an average particle size greater than 1 micron. This phenomenon was verified for batches at the 50 gram scale.
It was also observed that the final compositions or formulations of FP were stable across all concentrations tested, i.e., 0.005%, 0.01%, 0.1%, and 10%. Samples were placed in 4° C., 25° C., 40° C. stability chambers. Stability time-points: T=0d, T=1 week, T=2 weeks, T=4 weeks.
Nanocrystals prepared by the batch process were tested on stability, to assess if the particle size distribution remained with a narrow range of 400-600 nm. […]
Samples were measured for particle size, pH, osmolality and assay. […]

[3] = In-vitro dissolution study in vitreous humor; type: physicochemical, Bovine; conditions: crystals at 10 μm, 37° C., versus micronized TA at 10μ (FIG. 50)
Experimental: The rate of dissolution of ACX-TA crystals versus micronized TA in vitreous humor was studied. Bovine eyes were obtained fresh, and the vitreous humor was extracted. The vitreous humor was stored at 5° C., prior to use. 1 ml of crystals of various sizes (1.78 μm, 4.7 μm, 10.18 μm, or 15 μm) were incubated in a shaking incubator at 37° C. Crystals were prepared as described in Table 37 or 38. The crystals of 1.78 μm were prepared using citrate buffer and were of Form B, and the crystals of 4.7 μm, 10.18 μm, and 15 μm were prepared using phosphate buffer and were of Form C.

[4] = Solubility of triamcinolone acetonide in non-aqueous solvents; type: physicochemical; conditions: preliminary estimation; for solubility at 15 min: organic solvent or mixture, thermodynamic from solid
Experimental: Triamcinolone Acetonide (TA), stock was used as received from the manufacturer. Solubility of Triamcinolone Acetonide (TA) was measured in propylene glycol, polypropylene glycol, TWEEN® 20 (polysorbate 20), TWEEN 80 (polysorbate 80), PEG 400.
Initially, 5 mg of the TA was added to 10 g of solvent; the mixture was vortexed for 5 min, and sonicated for 10 min in a water bath. 1-5 mg of TA was added when the initial amount dissolved in the solvent completely—clear solution of TA in solvent. The process was continued until saturation solubility was reached. The solvent that provided the highest solubility was chosen for further development as Phase I.
The solubility of TA in propylene glycol, polypropylene glycol, PEG 400, TWEEN® 20 (polysorbate 20) and TWEEN® 80 (polysorbate 80) was evaluated. Initially, 5 mg of TA was added to these solvents and the suspension was vortexed and sonicated for 15 min in a water bath at 37° C. When the API (i.e., TA) dissolved, 1 mg of drug was added to the vial. This process was continued until a preliminary estimation of the drug in all solvents was achieved.

[5] = cited from earlier work
[6] = Thermal analysis (DSC/TGA); type: physicochemical
Experimental: The table below summarizes the testing conditions and parameters for the simultaneous thermal analysis tests. The samples were (a) Fluticasone Propionate nanocrystals, and (b) Fluticasone Propionate, stock material. The specimens were tested under a heating rate of 10° C./min starting at 30° C. until reaching a final temperature of 350° C. This process was repeated for each specimen. The experiments were performed at EBATCO, LLC, Eden Prairie, Minn.
Thermal properties of the TA particles from Example 9 were investigated using a SHIMADZU® DSC-60 and TGA-50.
Approximately 10 mg of sample was analyzed in an open aluminum pan, and heated at scanning rate of 10° C.·min^−1 from room temperature to 320° C. […] Peak of the heat of melting is at 289.42° C., with ΔHm=83.50 J/g. In comparison, peak of the heat of melting for the nanocrystals produced by the process described in Example 9 is at 275.78° C., with ΔHm=108.45 J/g (FIG. 34).

[7] = Solubility of fluticasone propionate in FDA-approved solvents and excipients (RP-HPLC at 239 nm); type: physicochemical
Experimental: The specific composition of Phase I depends upon the solubility of the drug in this phase. […] The suspension was centrifuged at 10,000 rpm and the supernatant analyzed by RP-HPLC at 239 nm.

[8] = oral dosing of labeled and unlabeled conventional fluticasone propionate; cited from earlier work

## CCC(=O)O[C@]1(C(=O)SCF)[C@H](C)C[C@H]2[C@@H]3C[C@H](F)C4=CC(=O)C=C[C@]4(C)[C@@]3(F)[C@@H](O)C[C@@]21C [FP homogenized]
[1]
  saturated solubility: 40 to 45 µg/mL

## CC1(C)O[C@@H]2C[C@H]3[C@@H]4CCC5=CC(=O)C=C[C@]5(C)[C@@]4(F)[C@@H](O)C[C@]3(C)[C@]2(C(=O)CO)O1 [TA stock material]
Tap density
  tap density: 0.4211 g/mL

## CCC(=O)O[C@]1(C(=O)SCF)[C@H](C)C[C@H]2[C@@H]3C[C@H](F)C4=CC(=O)C=C[C@]4(C)[C@@]3(F)[C@@H](O)C[C@@]21C [FP stock material]
Tap density; listed as fluticasone propionate stock
  tap density: 0.3278 g/mL
[1]
  time to reach saturated solubility: ≤ 2 weeks

## CCC(=O)O[C@]1(C(=O)SCF)[C@H](C)C[C@H]2[C@@H]3C[C@H](F)C4=CC(=O)C=C[C@]4(C)[C@@]3(F)[C@@H](O)C[C@@]21C [Form A]
[2]; after purification (FIG. 10)
  agglomeration over time: did not display any agglomeration over time
[2]; phase III pH 7.5, 25 degrees C. for 30 days
  average particle size on stability: greater than 1 micron
Tap density
  tap density: 0.5786 g/mL
Tap density; listed as dried fluticasone propionate crystals prepared by the batch process
  tap density: 0.5786 g/mL
[1]; in water at room temperature
  dissolution rate: about 1 μg/g/day
[1]; incubation in an aqueous medium
  time to reach saturated solubility: 6 weeks

## CC1(C)O[C@@H]2C[C@H]3[C@@H]4CCC5=CC(=O)C=C[C@]5(C)[C@@]4(F)[C@@H](O)C[C@]3(C)[C@]2(C(=O)CO)O1 [ACX-TA crystals]
[3]
  rate of dissolution in vitreous humor: much slower rate of dissolution than micronized TA
Tap density
  tap density: 0.5677 g/mL

## CC1(C)O[C@@H]2C[C@H]3[C@@H]4CCC5=CC(=O)C=C[C@]5(C)[C@@]4(F)[C@@H](O)C[C@]3(C)[C@]2(C(=O)CO)O1 [triamcinolone acetonide, (4aS,4bR,5S,6aS,6bS,9aR,10aS,10bS)-4b-fluoro-6b-glycoloyl-5-hydroxy-4a,6a,8,8-tetramethyl-4a,4b,5,6,6a,6b,9a,10,10a,10b,11,12-dodecahydro-2H-naphtho[2′,1′:4,5]indeno[1,2-d][1,3] dioxol-2-one]
[4]; in PEG 400, 37° C.
  solubility: 7000 µg/mL (≈ 16.1 mM)
[4]; in polypropylene glycol, 37° C.
  solubility: 8000 µg/mL (≈ 18.4 mM)
[4]; in Propylene glycol, sonicated in water bath at 37° C.
  solubility at 15 min: 14000 µg/mL (≈ 32.2 mM)
[4]; in TWEEN 20 (polysorbate 20), 37° C.
  solubility at 15 min: 5500 µg/mL (≈ 12.7 mM)
[4]; in TWEEN 80 (polysorbate 80), 37° C.
  solubility at 15 min: 4000 µg/mL (≈ 9.21 mM)
[5]; at 28° C.
  water solubility: 17.5 µg/mL (≈ 0.0403 mM)
[5]; in water
  solubility (descriptive): practically insoluble

## CC1(C)O[C@@H]2C[C@H]3[C@@H]4CCC5=CC(=O)C=C[C@]5(C)[C@@]4(F)[C@@H](O)C[C@]3(C)[C@]2(C(=O)CO)O1 [Stock TA, as purchased]
[6]
  Tm (Melting Point): 289.61 °C

## CCC(=O)O[C@]1(C(=O)SCF)[C@H](C)C[C@H]2[C@@H]3C[C@H](F)C4=CC(=O)C=C[C@]4(C)[C@@]3(F)[C@@H](O)C[C@@]21C [fluticasone propionate, (6α,11β,16α,17α)-6,9,-difluoro-11-hydroxy-16-methyl-3-oxo-17-(1-oxopropoxy) androsta-1,4-diene-17-carbothioic acid, S-fluoromethyl ester]
[7]; Acetone, 25 °C, organic solvent or mixture, thermodynamic from solid, in Acetone, overnight at 25 degrees centigrade, read-out: Solubility
  solubility: 63000 µg/mL (≈ 126 mM)
[7]; Castor oil, 25 °C, oil or lipid, thermodynamic from solid, in Castor oil, overnight at 25 degrees centigrade, read-out: Solubility
  solubility: 18 µg/mL (≈ 0.036 mM)
[7]; Corn oil, 25 °C, oil or lipid, thermodynamic from solid, in Corn oil, overnight at 25 degrees centigrade, read-out: Solubility
  solubility: 6.9 µg/mL (≈ 0.0138 mM)
[7]; Ethanol, 25 °C, organic solvent or mixture, thermodynamic from solid, in Ethanol, equilibrated overnight at 25 degrees centigrade, read-out: Solubility
  solubility: 4450 µg/mL (≈ 8.88 mM)
[7]; Glycerin, 25 °C, organic solvent or mixture, thermodynamic from solid, in Glycerin, overnight at 25 degrees centigrade, read-out: Solubility
  solubility: 144 µg/mL (≈ 0.288 mM)
[7]; Methylene Chloride, 25 °C, organic solvent or mixture, thermodynamic from solid, in Methylene Chloride, overnight at 25 degrees centigrade, read-out: Solubility
  solubility: 9250 µg/mL (≈ 18.5 mM)
[7]; PEG 200, 25 °C, organic solvent or mixture, thermodynamic from solid, in PEG 200, overnight at 25 degrees centigrade, read-out: Solubility
  solubility: 4210 µg/mL (≈ 8.4 mM)
[7]; PEG 400, 25 °C, organic solvent or mixture, thermodynamic from solid, in PEG 400, overnight at 25 degrees centigrade, read-out: Solubility
  solubility: 4330 µg/mL (≈ 8.65 mM)
[7]; PHOSAL 50 PG, 25 °C, oil or lipid, thermodynamic from solid, in PHOSAL 50 PG, overnight at 25 degrees centigrade, read-out: Solubility
  solubility: 426 µg/mL (≈ 0.851 mM)
[7]; PPG, 25 °C, organic solvent or mixture, thermodynamic from solid, in PPG, overnight at 25 degrees centigrade, read-out: Solubility
  solubility: 2230 µg/mL (≈ 4.45 mM)
[7]; Polysorbate 20, 25 °C, aqueous with cosolvent or surfactant or cyclodextrin, thermodynamic from solid, in Polysorbate 20, overnight at 25 degrees centigrade, read-out: Solubility
  solubility: 7060 µg/mL (≈ 14.1 mM)
[7]; Polysorbate 60, 25 °C, aqueous with cosolvent or surfactant or cyclodextrin, thermodynamic from solid, in Polysorbate 60, overnight at 25 degrees centigrade, read-out: Solubility
  solubility: 4910 µg/mL (≈ 9.81 mM)
[7]; Polysorbate 80, 25 °C, aqueous with cosolvent or surfactant or cyclodextrin, thermodynamic from solid, in Polysorbate 80, overnight at 25 degrees centigrade, read-out: Solubility
  solubility: 4660 µg/mL (≈ 9.3 mM)
[7]; Propylene glycol, 25 °C, organic solvent or mixture, thermodynamic from solid, in Propylene glycol, overnight at 25 degrees centigrade, read-out: Solubility
  solubility: 764 µg/mL (≈ 1.53 mM)
[7]; Span 20, 25 °C, aqueous with cosolvent or surfactant or cyclodextrin, thermodynamic from solid, in Span 20, overnight at 25 degrees centigrade, read-out: Solubility
  solubility: 46.9 µg/mL (≈ 0.0937 mM)
[7]; Span 80, 25 °C, aqueous with cosolvent or surfactant or cyclodextrin, thermodynamic from solid, in Span 80, overnight at 25 degrees centigrade, read-out: Solubility
  solubility: 52.1 µg/mL (≈ 0.104 mM)
[7]; in Dextrose 5%, overnight at 25 degrees centigrade
  solubility: 5.3 µg/mL (≈ 0.0106 mM)
[7]; in PHOSAL 50 PG, overnight at 25 degrees centigrade
  solubility: 660.1 µg/mL (≈ 1.32 mM)
[7]; in PHOSAL 53 MCT, overnight at 25 degrees centigrade
  solubility: 400 µg/mL (≈ 0.799 mM)
[7]; in n-octanol, overnight at 25 degrees centigrade
  solubility: 87.3 µg/mL (≈ 0.174 mM)
[7]; oleic acid, 25 °C, oil or lipid, thermodynamic from solid, in oleic acid, overnight at 25 degrees centigrade, read-out: Solubility
  solubility: 13.6 µg/mL (≈ 0.0272 mM)
[7]; phosphate buffer, 25 °C, pH 7, aqueous buffer, thermodynamic from solid, in Phos buff pH = 7, overnight at 25 degrees centigrade, read-out: Solubility
  solubility: 9.5 µg/mL (≈ 0.019 mM)
[7]; water, 25 °C, water, thermodynamic from solid, in water, overnight at 25 degrees centigrade, read-out: Solubility
  solubility: 0.14 µg/mL (≈ 0.00028 mM)
[5]; in dimethyl sulfoxide and dimethyl-formamide
  solubility (descriptive): freely soluble
[5]; in methanol and 95% ethanol
  solubility (descriptive): slightly soluble
[8]
  oral systemic bioavailability: < 1%
